Results on ten compounds are retold here after US8962596B2 (Array BioPharma Inc., priority 2010, dated 2015).

Holding throughout (type): biochemical
Test [1] addresses T1, JAK3 (Homo sapiens, UniProt P52333).
T1 construct: purchased Invitrogen Corporation, Carlsbad, Calif; PV4080
T1 sequence (P52333 1-1124): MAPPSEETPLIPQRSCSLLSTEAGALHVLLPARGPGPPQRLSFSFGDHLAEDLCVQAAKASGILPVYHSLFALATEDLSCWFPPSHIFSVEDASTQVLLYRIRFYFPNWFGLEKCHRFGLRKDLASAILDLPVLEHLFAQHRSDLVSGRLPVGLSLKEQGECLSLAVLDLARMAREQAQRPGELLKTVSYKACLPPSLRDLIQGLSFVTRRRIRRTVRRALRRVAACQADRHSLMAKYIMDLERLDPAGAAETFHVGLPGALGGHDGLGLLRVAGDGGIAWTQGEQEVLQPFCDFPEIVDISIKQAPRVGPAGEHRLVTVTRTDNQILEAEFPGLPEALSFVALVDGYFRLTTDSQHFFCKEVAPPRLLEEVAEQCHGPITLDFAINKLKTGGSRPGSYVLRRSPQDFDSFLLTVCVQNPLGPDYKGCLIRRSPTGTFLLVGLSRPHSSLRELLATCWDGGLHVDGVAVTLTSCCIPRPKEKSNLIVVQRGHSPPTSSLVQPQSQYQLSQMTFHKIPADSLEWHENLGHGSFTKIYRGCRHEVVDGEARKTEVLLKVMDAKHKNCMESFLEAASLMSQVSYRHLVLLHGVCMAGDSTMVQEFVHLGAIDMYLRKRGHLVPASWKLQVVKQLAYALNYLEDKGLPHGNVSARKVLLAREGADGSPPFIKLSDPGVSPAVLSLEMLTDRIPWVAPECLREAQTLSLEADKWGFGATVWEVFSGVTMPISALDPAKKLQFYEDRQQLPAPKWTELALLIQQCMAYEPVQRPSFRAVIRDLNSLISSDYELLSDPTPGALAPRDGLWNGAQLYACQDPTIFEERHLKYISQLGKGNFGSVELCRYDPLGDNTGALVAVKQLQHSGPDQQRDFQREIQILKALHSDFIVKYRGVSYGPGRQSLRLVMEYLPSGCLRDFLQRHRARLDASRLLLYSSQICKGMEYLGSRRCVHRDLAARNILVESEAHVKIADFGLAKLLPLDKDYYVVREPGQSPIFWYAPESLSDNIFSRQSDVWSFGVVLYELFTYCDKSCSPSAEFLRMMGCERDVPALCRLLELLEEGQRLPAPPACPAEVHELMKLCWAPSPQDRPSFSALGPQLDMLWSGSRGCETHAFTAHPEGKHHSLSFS
The test can be described thus: JAK3 Inhibition Assay (Omnia kinase fluorescence peptide substrate assay). The note with it: averaged IC50 ranges; assay of Example D; 10 μM (Km app) or 1 mM ATP, 2.5 nM JAK3. The text has this:
(§1) The assays described in Examples A, B, C and D for the determination of Tyk2, JAK1, JAK2 and JAK3 kinase activity, respectively, utilized the Omnia® Kinase fluorescence peptide substrate-based technology (Invitrogen). The specific components of the assay mixture are described in Examples A, B, C and D. In these assays, Mg^2+ is chelated upon phosphorylation of the Omnia peptide by the kinase to form a bridge between the chelation-enhanced fluorophore Sox and the phosphate, resulting in an increase in fluorescence emission at 485 nm when excited at […]. The reactions were therefore read at excitation 360 nm and emission was measured at 485 nm every 50 seconds for 45 minutes using a PerkinElmer EnVision Multilabel Plate Reader.
(§2) The final buffer conditions for Tyk2, JAK1, JAK2, and JAK3 assays were as follows: 25 mM HEPES, pH 7.4, 10 mM MgCl2, 0.01% Triton X-100 and 1 mM DTT.
(§3) Compounds were prepared at 50× the final concentration in DMSO by conducting 3-fold serial dilutions from a 500-μM intermediate dilution to give a 10-point dosing curve having a high dose of 10 μM. Two-μL aliquots of these were transferred to a fresh plate for a ten-fold intermediate dilution with assay buffer. Five-μL aliquots of the diluted compounds were then transferred to 20-μL of assay mixtures described in Examples A, B, C and D for a final concentration of DMSO of 2%. A standard or reference compound was typically included on each assay plate to validate that plate. For each plate, percent of control (POC) values were calculated for each well according to the following equation:
(§4) where Xmax=Average Uninhibited Controls • Xmin=Average Background IC50's were estimated from the POC's using a standard 4-parameter logistic model:
(§5) where • A=Minimum Y (Bottom Asymptote) • B=Maximum Y (Top Asymptote) • C=EC50 • D=Slope Factor • X=Compound Concentration (nM) • Y=POC
(§6) The IC50 is defined as the concentration of inhibitor at which the POC equals 50 for the fitted curve.
Compounds of Formula I were screened for their ability to inhibit JAK3 using the general enzyme inhibition assay method, in which the assay mixture contained 10 μM (Km app) or 1 mM ATP, 10 μM Omnia® Y7 peptide (Catalog #IVGN KNZ3071C, Invitrogen Corporation, Carlsbad, Calif.) and 2.5 nM JAK3 in a total volume of 20 μL. JAK3 was purchased from Invitrogen Corporation, Carlsbad, Calif. (catalog #IVGN PV4080).

Test [2] has as its target T2, JAK1 (Homo sapiens, UniProt P23458).
T2 construct: purchased Invitrogen Corporation, Carlsbad, Calif; PV4775
The test can be described thus: JAK1 Inhibition Assay (Omnia kinase fluorescence peptide substrate assay). Particulars: averaged IC50 ranges; assay of Example B; 40 μM (Km app) or 1 mM ATP, 15 nM JAK1.
Excerpt: as §1, §2, §3, §4, §5, §6
Compounds of Formula I were screened for their ability to inhibit JAK1 using the general enzyme inhibition assay method, in which the assay mixture contained 40 μM (Km app) or 1 mM ATP, 8 μM Omnia® Y12 peptide (Catalog #IVGN KPZ3121C; Invitrogen Corporation, Carlsbad, Calif.) and 15 nM JAK1 in a total volume of 20 μL. JAK1 was purchased from Invitrogen Corporation, Carlsbad, Calif. (catalog #IVGN PV4775).

In test [3] the target is T3, JAK2 (Homo sapiens, UniProt O60674).
T3 construct: purchased Invitrogen Corporation, Carlsbad, Calif; PV4288
T3 sequence (O60674 whole entry): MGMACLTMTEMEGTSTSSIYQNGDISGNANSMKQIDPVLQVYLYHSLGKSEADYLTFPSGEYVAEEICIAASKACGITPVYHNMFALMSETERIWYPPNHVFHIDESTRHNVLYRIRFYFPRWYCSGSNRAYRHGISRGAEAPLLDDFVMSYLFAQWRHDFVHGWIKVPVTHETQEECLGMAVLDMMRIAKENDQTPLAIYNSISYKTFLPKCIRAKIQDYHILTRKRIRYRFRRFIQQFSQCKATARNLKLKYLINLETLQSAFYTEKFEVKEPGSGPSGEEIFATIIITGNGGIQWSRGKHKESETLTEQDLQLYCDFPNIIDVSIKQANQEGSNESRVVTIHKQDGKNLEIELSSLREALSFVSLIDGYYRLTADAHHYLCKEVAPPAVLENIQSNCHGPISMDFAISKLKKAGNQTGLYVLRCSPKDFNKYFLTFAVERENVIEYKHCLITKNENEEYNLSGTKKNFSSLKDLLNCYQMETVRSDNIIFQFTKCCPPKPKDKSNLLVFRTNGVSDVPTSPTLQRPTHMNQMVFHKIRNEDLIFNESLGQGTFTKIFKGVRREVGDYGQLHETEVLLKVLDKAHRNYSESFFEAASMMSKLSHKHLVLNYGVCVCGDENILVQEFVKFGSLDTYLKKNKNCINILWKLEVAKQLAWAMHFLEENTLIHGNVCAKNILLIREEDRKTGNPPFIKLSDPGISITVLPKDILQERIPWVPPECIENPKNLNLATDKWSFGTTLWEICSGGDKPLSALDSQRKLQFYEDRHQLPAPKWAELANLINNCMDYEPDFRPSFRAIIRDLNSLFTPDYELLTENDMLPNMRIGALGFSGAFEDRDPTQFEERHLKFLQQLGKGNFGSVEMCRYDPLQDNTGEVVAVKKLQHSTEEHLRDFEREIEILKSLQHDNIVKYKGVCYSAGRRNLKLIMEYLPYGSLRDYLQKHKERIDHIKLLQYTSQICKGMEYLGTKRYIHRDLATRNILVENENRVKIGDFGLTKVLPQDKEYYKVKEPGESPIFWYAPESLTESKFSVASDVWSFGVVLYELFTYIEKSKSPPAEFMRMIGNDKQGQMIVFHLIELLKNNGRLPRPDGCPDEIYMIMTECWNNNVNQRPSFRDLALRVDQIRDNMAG
The test can be described thus: JAK2 Inhibition Assay (Omnia kinase fluorescence peptide substrate assay). Particulars: averaged IC50 ranges; assay of Example C; 25 μM (Km app) or 1 mM ATP, 5 nM JAK2.
Excerpt: as §1, §2, §3, §4, §5, §6
Compounds of Formula I were screened for their ability to inhibit JAK2 using the general enzyme inhibition assay method, in which the assay mixture contained 25 μM (Km app) or 1 mM ATP, 10 μM Omnia® Y7 peptide (Catalog #IVGN KNZ3071C, Invitrogen Corporation, Carlsbad, Calif.) and 5 nM JAK2 in a total volume of 20 μL. JAK2 was purchased from Invitrogen Corporation, Carlsbad, Calif. (catalog #IVGN PV4288).

The target of test [4] is T4, Human Tyk2 kinase domain (Homo sapiens, UniProt P29597).
T4 construct: comprising amino acids 886 to 1187 with 10 additional histidine residues; 10xHis (histidine tag) (C, cleaved yes); made in house
T4 sequence (P29597 886-1187): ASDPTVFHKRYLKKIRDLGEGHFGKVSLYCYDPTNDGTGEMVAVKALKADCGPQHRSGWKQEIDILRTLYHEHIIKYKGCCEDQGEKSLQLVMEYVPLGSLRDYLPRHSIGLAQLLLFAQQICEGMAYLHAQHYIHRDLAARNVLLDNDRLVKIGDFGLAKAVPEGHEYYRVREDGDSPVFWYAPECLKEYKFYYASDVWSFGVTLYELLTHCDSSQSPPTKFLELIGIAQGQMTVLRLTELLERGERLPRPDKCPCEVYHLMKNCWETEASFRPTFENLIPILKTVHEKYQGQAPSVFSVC
The test can be described thus: Tyk2 Inhibition Assay (Omnia kinase fluorescence peptide substrate assay). The note with it: averaged IC50 ranges; assay of Example A; 10 μM (Km app) or 1 mM ATP, 2 nM Tyk2.
Excerpt: as §1, §2, §3, §4, §5, §6
Compounds of Formula I were screened for their ability to inhibit Tyk2 using the general enzyme inhibition assay method, in which the assay mixture contained 10 μM (Km app) or 1 mM ATP, 8 μM Omnia® Y12 peptide (Catalog #IVGN KPZ3121C; Invitrogen Corporation, Carlsbad, Calif.) and 2 nM Tyk2 in a total volume of 20 μL. Human Tyk2 kinase domain, comprising amino acids 886 to 1187 with 10 additional histidine residues (histidine tag) on the carboxy terminus, was expressed and purified from bacculovirus in-house at Array BioPharma Inc. (Boulder, Colo.). The histidine tag was cleaved after purification using standard conditions.

Molecules are shown by their SMILES.

As a reminder, the IC50 is the point on the concentration scale where inhibition reaches its midpoint. A low value points to inhibition by little substance.

T2 sequence (P23458 whole entry): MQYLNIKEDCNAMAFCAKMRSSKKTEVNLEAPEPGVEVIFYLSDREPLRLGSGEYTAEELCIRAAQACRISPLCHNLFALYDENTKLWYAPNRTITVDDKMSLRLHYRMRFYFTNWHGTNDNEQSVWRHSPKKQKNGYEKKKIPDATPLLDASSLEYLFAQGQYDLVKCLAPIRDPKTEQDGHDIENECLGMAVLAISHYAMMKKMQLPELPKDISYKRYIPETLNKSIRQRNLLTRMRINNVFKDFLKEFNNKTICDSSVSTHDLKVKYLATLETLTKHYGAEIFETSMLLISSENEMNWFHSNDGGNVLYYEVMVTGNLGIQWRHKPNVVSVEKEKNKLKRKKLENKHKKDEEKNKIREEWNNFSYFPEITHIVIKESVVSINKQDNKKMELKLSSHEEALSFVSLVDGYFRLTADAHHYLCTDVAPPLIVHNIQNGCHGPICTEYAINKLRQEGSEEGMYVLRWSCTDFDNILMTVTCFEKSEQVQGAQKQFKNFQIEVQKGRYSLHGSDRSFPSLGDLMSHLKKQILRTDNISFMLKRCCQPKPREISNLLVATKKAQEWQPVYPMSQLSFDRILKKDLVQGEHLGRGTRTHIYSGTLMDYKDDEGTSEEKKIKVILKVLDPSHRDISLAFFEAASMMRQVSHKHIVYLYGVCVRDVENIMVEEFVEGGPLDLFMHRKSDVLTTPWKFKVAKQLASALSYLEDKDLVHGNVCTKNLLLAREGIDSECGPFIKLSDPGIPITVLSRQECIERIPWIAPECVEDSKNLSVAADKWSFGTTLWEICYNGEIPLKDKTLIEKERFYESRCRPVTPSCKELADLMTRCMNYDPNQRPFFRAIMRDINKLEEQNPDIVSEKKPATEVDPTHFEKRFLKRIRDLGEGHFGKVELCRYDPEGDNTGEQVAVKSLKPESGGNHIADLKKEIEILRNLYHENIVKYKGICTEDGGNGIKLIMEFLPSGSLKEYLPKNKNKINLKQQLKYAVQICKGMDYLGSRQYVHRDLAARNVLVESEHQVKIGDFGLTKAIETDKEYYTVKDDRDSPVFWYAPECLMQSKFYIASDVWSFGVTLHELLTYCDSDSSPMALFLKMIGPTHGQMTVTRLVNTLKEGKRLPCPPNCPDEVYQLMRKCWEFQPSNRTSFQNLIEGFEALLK

Take `Cn1cc(-c2cc3nccn3c(-c3cnn(C4(CC#N)CN(CC(F)(F)F)C4)c3)n2)cn1` [Example 71, 2-(3-(4-(7-(1-methyl-1H-pyrazol-4-yl)imidazo[1,2-c]pyrimidin-5-yl)-1H-pyrazol-1-yl)-1-(2,2,2-trifluoroethyl)azetidin-3-yl)acetonitrile]: the IC50 is more than 1000 nM in test [1], 100 to 1000 nM in test [2], 10 to 100 nM in test [3] and less than 10 nM in test [4].
For `COc1cncc(C(CC#N)n2cc(-c3nc(-c4cnn(C)c4)cc4nccn34)cn2)c1` (stereo not shown) [Example 9, 3-(5-methoxypyridin-3-yl)-3-(4-(7-(1-methyl-1H-pyrazol-4-yl)imidazo[1,2-c]pyrimidin-5-yl)-1H-pyrazol-1-yl)propanenitrile], in that order: more than 1000 nM, 100 to 1000 nM, 10 to 100 nM and 10 to 100 nM.
The corresponding values for `Cn1cc(-c2cc3nccn3c(-c3cnn(C4(CC#N)CC5(CCC5)C4)c3)n2)cn1` [Example 160, 2-(2-(4-(7-(1-methyl-1H-pyrazol-4-yl)imidazo[1,2-c]pyrimidin-5-yl)-1H-pyrazol-1-yl)spiro[3.3]heptan-2-yl)acetonitrile] are 100 to 1000 nM, 100 to 1000 nM, 10 to 100 nM and less than 10 nM.
Take `Cn1cc(-c2cc3nccn3c(-c3cnn(C(CC#N)C4CC4)c3)n2)cn1` (stereo not shown) [Example 2, 3-Cyclopropyl-3-(4-(7-(1-methyl-1H-pyrazol-4-yl)imidazo[1,2-c]pyrimidin-5-yl)-1H-pyrazol-1-yl)propanenitrile]: the IC50 is more than 1000 nM in test [1], 100 to 1000 nM in test [2], 10 to 100 nM in test [3] and less than 10 nM in test [4].
For `Cn1cc(-c2cc3nccn3c(-c3cnn(C4(CC#N)CN(S(C)(=O)=O)C4)c3)n2)cn1` [Example 92, 2-(3-(4-(7-(1-methyl-1H-pyrazol-4-yl)imidazo[1,2-c]pyrimidin-5-yl)-1H-pyrazol-1-yl)-1-(methylsulfonyl)azetidin-3-yl)acetonitrile], the IC50 is more than 1000 nM in test [1], 100 to 1000 nM in test [2], 10 to 100 nM in test [3] and less than 10 nM in test [4].
`Cn1cc(-c2cc3nccn3c(-c3cnn(C4(CC#N)CN(C(=O)CC(F)(F)F)C4)c3)n2)cn1` [Example 64, 2-(3-(4-(7-(1-Methyl-1H-pyrazol-4-yl)imidazo[1,2-c]pyrimidin-5-yl)-1H-pyrazol-1-yl)-1-(3,3,3-trifluoropropanoyl)azetidin-3-yl)acetonitrile]: the half-maximal inhibitory concentration (IC50) in test [1] lay within 100 to 1000 nM; in test [2], 100 to 1000 nM; in test [3], 10 to 100 nM; in test [4], 10 to 100 nM.
In the case of `N#CCC(C1CC1)n1cc(-c2nc(-c3cnn(CC(F)(F)F)c3)cc3nccn23)cn1` (stereo not shown) [Example 39, 3-cyclopropyl-3-(4-(7-(1-(2,2,2-trifluoroethyl)-1H-pyrazol-4-yl)imidazo[1,2-c]pyrimidin-5-yl)-1H-pyrazol-1-yl)propanenitrile], the IC50 in test [1] was 100 to 1000 nM; in test [2], 10 to 100 nM; in test [3], 10 to 100 nM; in test [4], less than 10 nM.
Regarding `Cn1cc(-c2cc3nccn3c(-c3cnn(C(CC#N)C4CC4(F)F)c3)n2)cn1` (mixture of isomers) [Example 147, 3-(2,2-difluorocyclopropyl)-3-(4-(7-(1-methyl-1H-pyrazol-4-yl)imidazo[1,2-c]pyrimidin-5-yl)-1H-pyrazol-1-yl)propanenitrile], the IC50 is 100 to 1000 nM in test [1], 10 to 100 nM in test [2], 10 to 100 nM in test [3] and less than 10 nM in test [4].
`N#CCC(C1CCCC1)n1cc(-c2nc(-c3ccc(N4CCOCC4)cc3)cc3nccn23)cn1` (stereo not shown) [Example 113, 3-Cyclopentyl-3-(4-(7-(4-morpholinophenyl)imidazo[1,2-c]pyrimidin-5-yl)-1H-pyrazol-1-yl)propanenitrile]: the IC50 in test [1] was 100 to 1000 nM; in test [2] it was 10 to 100 nM; in test [3] it was 10 to 100 nM; in test [4], less than 10 nM.
As to `N#CCC(C1CC1)n1cc(-c2nc(C(=O)NC3CCCCC3)cc3nccn23)cn1` (stereo not shown) [Example 123, 5-(1-(2-Cyano-1-cyclopropylethyl)-1H-pyrazol-4-yl)-N-cyclohexylimidazo[1,2-c]pyrimidine-7-carboxamide], the IC50 in test [1] is more than 1000 nM; in test [2], more than 1000 nM; in test [3], more than 1000 nM; in test [4] it was 100 to 1000 nM.
